Assay [1] has as its target Recombinant human Cbl-b (aa 36-427) (Homo sapiens, UniProt Q13191). Description: Cbl-b Biochemical Assay (TR-FRET). The note with it: read-out: TR-FRET hCbl-b IC50. In general terms: Time-resolved FRET reads energy transfer from a long-lived donor to a nearby acceptor.
Assay [2] deals with Jurkat (clone E6-1) cells with NFAT luciferase reporter. Description: Jurkat reporter assay (NFAT Luciferase). The following applies: Homo sapiens; Jurkat NFAT luciferase reporter cells, anti-CD3 stimulation, 6 hr; read-out: Jurkat NFAT EC50. The assay is classed as cell-based. (In general: In a reporter assay the amount or activity of a reporter protein is the signal.)
The target of assay [3] is T1, Recombinant human c-Cbl (aa 47-435) (Homo sapiens, UniProt P22681).
T1 sequence (P22681 47-435): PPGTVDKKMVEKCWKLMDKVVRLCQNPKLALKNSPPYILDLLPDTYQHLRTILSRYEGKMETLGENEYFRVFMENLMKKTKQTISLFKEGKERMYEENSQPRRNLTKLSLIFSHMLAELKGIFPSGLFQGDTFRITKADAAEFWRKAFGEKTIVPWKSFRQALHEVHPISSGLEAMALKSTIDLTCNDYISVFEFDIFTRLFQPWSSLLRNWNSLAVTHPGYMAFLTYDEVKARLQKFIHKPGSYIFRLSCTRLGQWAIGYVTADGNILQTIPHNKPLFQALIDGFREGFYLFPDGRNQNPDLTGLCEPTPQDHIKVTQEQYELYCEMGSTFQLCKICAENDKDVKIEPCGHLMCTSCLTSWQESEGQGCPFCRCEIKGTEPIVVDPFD
Description: c-Cbl Biochemical Assay (TR-FRET). The note with it: hc-Cbl Biochemical Assay (TR-FRET); read-out: TR-FRET hcCbl IC50.

Recombinant human Cbl-b (aa 36-427), sequence (Q13191 36-427): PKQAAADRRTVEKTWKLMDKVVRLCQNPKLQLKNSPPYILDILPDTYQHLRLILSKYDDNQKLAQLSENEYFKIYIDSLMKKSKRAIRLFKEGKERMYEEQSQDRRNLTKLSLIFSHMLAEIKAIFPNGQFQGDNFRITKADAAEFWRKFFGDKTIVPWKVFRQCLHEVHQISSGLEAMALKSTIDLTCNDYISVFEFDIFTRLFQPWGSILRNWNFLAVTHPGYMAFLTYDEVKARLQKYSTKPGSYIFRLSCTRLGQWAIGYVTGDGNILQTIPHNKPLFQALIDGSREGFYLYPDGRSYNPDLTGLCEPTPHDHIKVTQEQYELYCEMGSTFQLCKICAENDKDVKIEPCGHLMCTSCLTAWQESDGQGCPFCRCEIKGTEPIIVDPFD

For the molecule `COC(=O)c1cc(C)c2oc(-c3cc(-c4ccc(F)cc4-c4nncn4C)cc(C4CC4)n3)nc2c1` [AES-3, Methyl 2-{6-cyclopropyl-4-[4-fluoro-2-(4-methyl-1,2,4-triazol-3-yl)phenyl]pyridin-2-yl}-7-methyl-1,3-benzoxazole-5-carboxylate], in assay [1], the IC50 (as a rule, the concentration that gives 50% inhibition) was in the range of 1 to 10 µM. Moreover, in assay [2], the EC50 (commonly the concentration giving half of the maximal effect) fell in the range of 10 to 50 µM.
Turning to `Cn1cnnc1-c1cc(F)ccc1-c1cccc(-c2nc3cc(CNC4(CO)COC4)cc(C(F)(F)F)c3[nH]2)c1` [BS-1, (3-(((2-(4′-Fluoro-2′-(4-methyl-4H-1,2,4-triazol-3-yl)-[1,1′-biphenyl]-3-yl)-7-(trifluoromethyl)-1H-benzo[d]imidazol-5-yl)methyl)amino)oxetan-3-yl)methanol], the IC50 in assay [3] was 1 to 10 µM; in assay [1] it was less than 0.2 µM.
Take `Cn1cnnc1-c1cc(F)ccc1-c1cccc(-c2nc3cc(CO)ccc3[nH]2)c1` [BW-3, (2-(4′-Fluoro-2′-(4-methyl-4H-1,2,4-triazol-3-yl)-[1,1′-biphenyl]-3-yl)-1H-benzo[d]imidazol-5-yl)methanol]: the IC50 in assay [3] and in assay [1] was 10 to 50 µM throughout.
For `Cn1cnnc1-c1cc(F)ccc1-c1cccc(-c2nc3cc(CNCC(C)(C)O)ccc3[nH]2)c1` [BX-2, 1-(((2-(4′-Fluoro-2′-(4-methyl-4H-1,2,4-triazol-3-yl)-[1,1′-biphenyl]-3-yl)-1H-benzo[d]imidazol-5-yl)methyl)amino)-2-methylpropan-2-ol], the IC50 in assay [3] was in the range of 10 to 50 µM; in assay [1], 0.2 to 1 µM.
For `Cn1cnnc1-c1cc(C#N)ccc1-c1cccc(-c2nc3cc(CO)cc(C(F)(F)F)c3[nH]2)c1` [BZ-1, 3′-(5-(Hydroxymethyl)-7-(trifluoromethyl)-1H-benzo[d]imidazol-2-yl)-2-(4-methyl-4H-1,2,4-triazol-3-yl)-[1,1′-biphenyl]-4-carbonitrile], in that order: 10 to 50 µM and 1 to 10 µM.
For `Cn1cnnc1-c1cc(C#N)ccc1-c1cccc(-c2nc3cccc(C(F)(F)F)c3[nH]2)c1` [CB-1, 2-(4-Methyl-4H-1,2,4-triazol-3-yl)-3′-(4-(trifluoromethyl)-1H-benzo[d]imidazol-2-yl)-[1,1′-biphenyl]-4-carbonitrile], in that order: 10 to 50 µM and 10 to 50 µM.
The like results for `Cn1cnnc1CC1(c2cccc(-c3cc(C(F)(F)F)cn(C)c3=O)c2)COC1` [CF-2, 1-Methyl-3-(3-(3-((4-methyl-4H-1,2,4-triazol-3-yl)methyl)oxetan-3-yl)phenyl)-5-(trifluoromethyl)pyridin-2(1H)-one] were, in that order, 10 to 50 µM and 10 to 50 µM.
Regarding `COC(=O)c1[nH]c(=O)c(-c2cccc(-c3ccccc3-c3nncn3C)c2)cc1C(F)(F)F` [CH-2, Methyl 5-(2′-(4-methyl-4H-1,2,4-triazol-3-yl)-[1,1′-biphenyl]-3-yl)-6-oxo-3-(trifluoromethyl)-1,6-dihydropyridine-2-carboxylate], the half-maximal inhibitory concentration (IC50) in assay [3] and in assay [1] was 10 to 50 µM in each case.
Regarding `CCN(Cc1cc(C(F)(F)F)c2oc(-c3cccc(-c4ccc(F)cc4-c4nncn4C)c3)nc2c1)CC1(C#N)CCCC1` [CO-2, 1-((Ethyl((2-(4′-fluoro-2′-(4-methyl-4H-1,2,4-triazol-3-yl)-[1,1′-biphenyl]-3-yl)-7-(trifluoromethyl)benzo[d]oxazol-5-yl)methyl)amino)methyl)cyclopentane-1-carbonitrile], the values for the IC50 in assay [3] and in assay [1] were 1 to 10 µM and less than 0.2 µM, respectively.
As for `Cn1cnnc1-c1cc(F)ccc1-c1cccc(-c2nc3cc(C(=O)O)cc(C(F)(F)F)c3o2)c1` [DB-1, 2-(4′-Fluoro-2′-(4-methyl-4H-1,2,4-triazol-3-yl)-[1,1′-biphenyl]-3-yl)-7-(trifluoromethyl)benzo[d]oxazole-5-carboxylic Acid], in assay [1], the concentration for half-maximal inhibition (IC50) lay within 10 to 50 µM. The EC50 in assay [2] lay in the range of 1 to 10 µM.
As to `Cn1cnnc1-c1cc(F)ccc1-c1cccc(-c2nc3cc(C(=O)N[C@@H]4CCC[C@@H]4O)cc(C(F)(F)F)c3o2)c1` [DB-2, 2-(4′-Fluoro-2′-(4-methyl-4H-1,2,4-triazol-3-yl)-[1,1′-biphenyl]-3-yl)-N-((1R,2S)-2-hydroxycyclopentyl)-7-(trifluoromethyl)benzo[d]oxazole-5-carboxamide], the figures for the IC50 in assay [3] and in assay [1] were 1 to 10 µM and 0.2 to 1 µM, respectively.
The like results for `Cn1cnnc1-c1cc(F)ccc1-c1cccc(-c2nc3ccc(CO)cc3o2)c1` [DC-3, (2-(4′-Fluoro-2′-(4-methyl-4H-1,2,4-triazol-3-yl)-[1,1′-biphenyl]-3-yl)benzo[d]oxazol-6-yl)methanol] were, in that order, 10 to 50 µM and 1 to 10 µM.
For `CC(=O)c1cc(C(F)(F)F)c2oc(-c3cccc(-c4ccc(F)cc4-c4nncn4C)c3)nc2c1` [DK-1, 1-(2-(4′-Fluoro-2′-(4-methyl-4H-1,2,4-triazol-3-yl)-[1,1′-biphenyl]-3-yl)-7-(trifluoromethyl)benzo[d]oxazol-5-yl)ethan-1-one], the IC50 in assay [3] was 1 to 10 µM; in assay [1], less than 0.2 µM.
With `C[C@@H]1CN(Cc2cc(C(F)(F)F)c3oc(-c4cccc(-c5ccccc5-c5nncn5C)c4)nc3c2)CCO1` [Example 0-4, (R)-2-(2′-(4-Methyl-4H-1,2,4-triazol-3-yl)-[1,1′-biphenyl]-3-yl)-5-((2-methylmorpholino)methyl)-7-(trifluoromethyl)benzo[d]oxazole], the values for the IC50 in assay [3] and in assay [1] were 10 to 50 µM and 0.2 to 1 µM, respectively.
For `Cn1cnnc1-c1ccccc1-c1cccc(-c2nc3cc(CO)cc(C(F)(F)F)c3o2)c1` [Example F-5, (2-(2′-(4-Methyl-4H-1,2,4-triazol-3-yl)-[1,1′-biphenyl]-3-yl)-7-(trifluoromethyl)benzo[d]oxazol-5-yl)methanol], in that order: 10 to 50 µM and 1 to 10 µM.
For `COC(=O)c1cc(C(F)(F)F)c2oc(-c3cccc(-c4ccccc4-c4nncn4C)c3)nc2c1` [Example G-1, Methyl 2-(2′-(4-methyl-4H-1,2,4-triazol-3-yl)-[1,1′-biphenyl]-3-yl)-7-(trifluoromethyl)benzo[d]oxazole-5-carboxylate], in that order: 10 to 50 µM and 10 to 50 µM.
For `Cn1cnnc1-c1ccccc1-c1cccc(-c2nc3cc(C(=O)O)cc(C(F)(F)F)c3o2)c1` [Example H-1, 2-(2′-(4-Methyl-4H-1,2,4-triazol-3-yl)-[1,1′-biphenyl]-3-yl)-7-(trifluoromethyl)benzo[d]oxazole-5-carboxylic Acid], the IC50 in assay [3] and in assay [1] was 10 to 50 µM each time.
Consider `C[C@H]1CCCN(C(=O)c2cc(C(F)(F)F)c3oc(-c4cccc(-c5ccccc5-c5nncn5C)c4)nc3c2)C1` [Example I-2, (S)-(2-(2′-(4-Methyl-4H-1,2,4-triazol-3-yl)-[1,1′-biphenyl]-3-yl)-7-(trifluoromethyl)benzo[d]oxazol-5-yl)(3-methylpiperidin-1-yl)methanone], for which the IC50 in assay [3] and in assay [1] was 10 to 50 µM each time.
Take `Cn1cnnc1-c1ccccc1-c1cccc(-c2nc3cc(C(C)(C)O)cc(C(F)(F)F)c3o2)c1` [Example J-1, 2-(2-(2′-(4-Methyl-4H-1,2,4-triazol-3-yl)-[1,1′-biphenyl]-3-yl)-7-(trifluoromethyl)benzo[d]oxazol-5-yl)propan-2-ol]: the IC50 in assay [3] and in assay [1] was 10 to 50 µM throughout.
As to `Cn1cnnc1-c1ccccc1-c1cccc(-c2nc3cccc(C(F)(F)F)c3o2)c1` [Example K-2, 2-(2′-(4-Methyl-4H-1,2,4-triazol-3-yl)-[1,1′-biphenyl]-3-yl)-7-(trifluoromethyl)benzo[d]oxazole], the IC50 in assay [3] and in assay [1] was 10 to 50 µM in each case.
`C[C@@H]1CCCN(Cc2cc(C(F)(F)F)c3oc(-c4cccc(-c5ccccc5-c5nncn5C)c4)nc3c2)C1` [Example L-4, (R)-2-(2′-(4-Methyl-4H-1,2,4-triazol-3-yl)-[1,1′-biphenyl]-3-yl)-5-((3-methylpiperidin-1-yl)methyl)-7-(trifluoromethyl)benzo[d]oxazole]: the IC50 lay within 10 to 50 µM in assay [3] and 1 to 10 µM in assay [1].
For `Cn1cnnc1-c1ccccc1-c1cccc(-c2nc3cc(CN(C(=O)OC(C)(C)C)[C@@H]4CCC[C@H]4O)cc(C(F)(F)F)c3o2)c1` [Example M-5, tert-Butyl ((1R,2R)-2-hydroxycyclopentyl)((2-(2′-(4-methyl-4H-1,2,4-triazol-3-yl)-[1,1′-biphenyl]-3-yl)-7-(trifluoromethyl)benzo[d]oxazol-5-yl)methyl)carbamate], in that order: 10 to 50 µM and 0.2 to 1 µM.
For `Cn1cnnc1-c1cc(F)ccc1-c1cccc(-c2nc3cccc(C(F)(F)F)c3o2)c1` [Example S-1, 2-(4′-Fluoro-2′-(4-methyl-4H-1,2,4-triazol-3-yl)-[1,1′-biphenyl]-3-yl)-7-(trifluoromethyl)benzo[d]oxazole], in that order: 1 to 10 µM and 0.2 to 1 µM.
For `COC(=O)c1cc(C(F)(F)F)c2oc(-c3cccc(-c4ccc(F)cc4-c4nncn4C)c3)nc2c1` [Example X-1, Methyl 2-(4′-fluoro-2′-(4-methyl-4H-1,2,4-triazol-3-yl)-[1,1′-biphenyl]-3-yl)-7-(trifluoromethyl)benzo[d]oxazole-5-carboxylate], in that order: 1 to 10 µM and 0.2 to 1 µM.

The values are drawn from patent publication US20250163038A1, “CBL-B MODULATORS AND USES THEREOF” (Nimbus Clio, Inc., priority 2021, published 2025).
